In US10662198B2, “Polymorphic form of compound, preparation method and use thereof” (QILU PHARMACEUTICAL CO., LTD., priority 2017, dated 2020):

What was measured:
Type in all cases: physicochemical
[1] = Stability test at room temperature; conditions: for Purity after 180 days / Crystalline form after 180 days: sealed medicinal low density polyethylene bags; for Purity after 180 days: HPLC; for Crystalline form after 180 days: XRPD
Description: The crystalline form II prepared in example 2, crystalline form IV prepared in example 4, crystalline form VI prepared in example 8, and crystalline form VII prepared in example 10 were respectively placed in medicinal low density polyethylene bags, sealed, and maintained at room temperature for 180 days, detected by PANalytical X-ray powder diffractometer for its XRPD, and by high performance liquid chromatography for its purity.

[2] = Stability test under high humidity
Description: The crystalline form IV prepared in example 4 was subjected to a stability test at 92.5% RH, and the results were shown in Table 8 below.

[3] = Stability test at high temperature
Protocol: The crystalline form II prepared in example 2 was subjected to a stability test at 60° C., and the results were shown in Table 7 below.

SMILES | purity and crystalline form after 180 days (in words) [1] | Purity after 180 days [1] [%] | Crystalline form after 180 days [1] | HPLC purity (%) Initial ([2]; 92.5% RH test, initial) [%] | HPLC purity (%) After 10 days ([2]; 92.5% RH, after 10 days) [%] | change in purity and crystal form (in words) ([2]; high humidity condition, 10 days) | purity, color, and properties on preservation at high humidity (in words) ([2]; relative humidity of up to 92.5% RH) | HPLC purity (%) Initial ([3]; 60° C. test, initial) [%] | Crystalline form After 10 days ([3]; 60° C., after 10 days) | HPLC purity (%) After 10 days ([3]; 60° C., after 10 days) [%] | change in purity and crystalline form (in words) ([3]; high temperature condition, 10 days)
COC(=O)C1=C2C[C@H](NS(N)(=O)=O)CN2C(c2nccs2)=N[C@H]1c1ccc(F)c(F)c1F [Crystalline form VI, methyl (3R,6S)-6-aminosulfonylamino-1-(thiazol-2-yl)-3-(2,3,4-trifluorophenyl)-3,5,6,7-tetrahydropyrrolo[1,2-c]pyrimidin-4-formate] | remained unchanged | 99.7 | unchanged | – | – | – | – | – | – | – | –
COC(=O)C1=C2C[C@H](NS(N)(=O)=O)CN2C(c2nccs2)=N[C@H]1c1ccc(F)c(F)c1F [Crystalline form VII, methyl (3R,6S)-6-aminosulfonylamino-1-(thiazol-2-yl)-3-(2,3,4-trifluorophenyl)-3,5,6,7-tetrahydropyrrolo[1,2-c]pyrimidin-4-formate] | remained unchanged | 99.5 | unchanged | – | – | – | – | – | – | – | –
COC(=O)C1=C2C[C@H](NS(N)(=O)=O)CN2C(c2nccs2)=N[C@H]1c1ccc(F)c(F)c1F [Crystalline form IV, methyl (3R,6S)-6-aminosulfonylamino-1-(thiazol-2-yl)-3-(2,3,4-trifluorophenyl)-3,5,6,7-tetrahydropyrrolo[1,2-c]pyrimidin-4-formate] | remained unchanged | 99.3 | unchanged | 99.2 | 99.1 | no change in purity and crystal form | purity, color, and properties unchanged | – | – | – | –
COC(=O)C1=C2C[C@H](NS(N)(=O)=O)CN2C(c2nccs2)=N[C@H]1c1ccc(F)c(F)c1F [Crystalline form II, methyl (3R,6S)-6-aminosulfonylamino-1-(thiazol-2-yl)-3-(2,3,4-trifluorophenyl)-3,5,6,7-tetrahydropyrrolo[1,2-c]pyrimidin-4-formate] | remained unchanged | 99.5 | unchanged | – | – | – | – | 96.8 | crystalline form unchanged | 96.6 | no change in purity and crystalline form
